According to patent US9512140B2, “(Thieno[2,3-b][1,5]benzoxazepin-4-yl)piperazin-1-yl compounds as dual activity H1 inverse agonists/5-HT2A antagonists” (priority 2011, dated 2016):

System: Rats
Experiment: Sleep and behavioral monitoring in rats (EEG, EMG, motion)
Format: in vivo
Settings: for Rebound Insomnia, Adj. Mean: NREM+REM sleep in 7th-9th hours post-treatment; for Rebound Insomnia, Adj. Mean / REM inhibition, Adj. Mean / Cumulative Total sleep, Adj. Mean / Locomotor Activity Intensity, Adj. Mean: difference from vehicle; for REM inhibition, Adj. Mean: cumulative REM sleep, first 12 hr. post-treatment; for Average Sleep Bout, Adj. Mean / Longest Sleep Bout, Adj. Mean / Cumulative Total sleep, Adj. Mean / Cumulative NREM sleep, Adj. Mean / Locomotor Activity Intensity, Adj. Mean: first 6 hr. post-treatment; for Cumulative Total sleep, Adj. Mean: NREM+REM; for Cumulative NREM sleep, Adj. Mean: adjusted difference from vehicle controls
Experimental: The compound of the present invention is tested in rats for its ability to increase the amount of sleep or decrease sleep interruption or both without undesired effects such as inhibition of REM sleep, waking motor impairment, and/or rebound insomnia. Test animals are continuously monitored by electro-encephalograms (EEG), electromyograms (EMG), and motion to measure cumulative nonREM sleep, cumulative total sleep, average sleep bout duration, longest sleep bout duration, rebound insomnia. REM sleep inhibition and locomotor activity intensity during wakefulness. Methods for such studies are known in the art (see for example methods described in Edgar D M, Seidel W F. Modafinil induces wakefulness without intensifying motor activity or subsequent rebound hypersomnolence in the rat. J Pharmacology & Experimental Therapeutics 1997; 283: 757-769; van Gelder R N, Edgar D M, Dement W C. Real-time automated sleep scoring: validation of a microcomputer-based system for mice. Sleep 1991, 14: 48-55; and Gross B A, Walsh C M, Turakhia A A, Booth V, Mashour G A, Poe G R. Open-source logic-based automated sleep scoring software using electrophysiological recordings in rats. J Neurosci Methods. 2009; 184(1):10-8.) Studies are conducted as follows:
Adult, male Wistar rats (approximately 270-300 g at time of surgery) are surgically fitted for chronic recording of EEG, EMG, and motion as follows: Rats are surgically prepared with a cranial implant consisting of four stainless steel screws for EEG recording (two frontal [3.9 mm anterior from bregma, and ±2.0 mm mediolaterally] and two occipital [6.4 mm posterior from bregma, ±5.5 mm mediolaterally]), and with two Teflon-coated stainless steel wires for EMG recording (positioned under the nuchal trapezoid muscles). All leads are soldered to a miniature connector (Microtech, Boothwyn, Pa.) prior to surgery. The implant assembly is affixed to the skull by the combination of the stainless steel EEG recording screws, cyanoacrylate applied between the implant connector and skull, and dental acrylic. Locomotor activity is monitored via a miniature transmitter (Minimitter PDT4000G, Philips Respironics, Bend, Oreg.) surgically placed into the abdomen. At least 3 weeks are allowed for recovery.
Each rat is housed individually within a microisolator cage modified with an inserted polycarbonate filter-top riser to allow more vertical headroom. A flexible cable that minimally restricts movement is connected at one end to a commutator afixed to the cage top and at the other end to the animal's cranial implant. Each cage is located within separate, ventilated compartments of a stainless steel sleep-wake recording chamber. Food and water are available ad libitum and the ambient temperature is maintained at about 23±1° C. A 24-hr light-dark cycle (LD 12:12) using fluorescent light is maintained throughout the study. Relative humidity averages approximately 50%. Animals are undisturbed for at least 30 hrs before and after each treatment.
The vehicle (placebo, methylcellulose 15 centipoise 0.25% in water) or one of the test compound dose levels is administered orally at 1 mL/kg pseudo-randomly such that no rat receives the same treatment twice, and no rat receives more than two of the 8 treatments in any one study. Each rat is removed from its cage for about a minute to be weighed and treated. At least 6 days “washout” period precede and follow each treatment. […]

## Cc1ccc2c(c1)Oc1sc(C)cc1C(N1CCN(CC(C)(C)C(=O)O)CC1)=N2 [Example 3, 3-[4-(2,8-Dimethylthieno[2,3-b][1,5]benzoxazepin-4-yl)piperazin-1-yl]-2,2-dimethyl-propanoic acid; 4-methylbenzenesulfonic acid]
0.025 mg/kg PO
  Rebound Insomnia, Adj. Mean: 0.3 min
  REM inhibition, Adj. Mean: -2.7 min
  Average Sleep Bout, Adj. Mean: 1.0 n-fold increase over vehicle controls
  Longest Sleep Bout, Adj. Mean: 1.0 n-fold increase over vehicle controls
  Cumulative Total sleep, Adj. Mean: -2.3 min
  Cumulative NREM sleep, Adj. Mean: 1.3 min
  Locomotor Activity Intensity, Adj. Mean: −0.1 LMA counts per minute of EEG-defined wakefulness
0.25 mg/kg PO
  Rebound Insomnia, Adj. Mean: 1.0 min
  REM inhibition, Adj. Mean: -1.5 min
  Average Sleep Bout, Adj. Mean: 1.6 n-fold increase over vehicle controls
  Longest Sleep Bout, Adj. Mean: 1.6 n-fold increase over vehicle controls
  Cumulative Total sleep, Adj. Mean: 33.5 min
  Cumulative NREM sleep, Adj. Mean: 34.3 min
  Locomotor Activity Intensity, Adj. Mean: −1.6 LMA counts per minute of EEG-defined wakefulness
0.5 mg/kg PO
  Rebound Insomnia, Adj. Mean: -0.3 min
  REM inhibition, Adj. Mean: 0.7 min
  Average Sleep Bout, Adj. Mean: 1.6 n-fold increase over vehicle controls
  Longest Sleep Bout, Adj. Mean: 2.1 n-fold increase over vehicle controls
  Cumulative Total sleep, Adj. Mean: 21.7 min
  Cumulative NREM sleep, Adj. Mean: 21.7 min
  Locomotor Activity Intensity, Adj. Mean: 0.0 LMA counts per minute of EEG-defined wakefulness
1 mg/kg PO
  Rebound Insomnia, Adj. Mean: -3.8 min
  REM inhibition, Adj. Mean: 0.1 min
  Average Sleep Bout, Adj. Mean: 1.7 n-fold increase over vehicle controls
  Longest Sleep Bout, Adj. Mean: 2.2 n-fold increase over vehicle controls
  Cumulative Total sleep, Adj. Mean: 30.8 min
  Cumulative NREM sleep, Adj. Mean: 31.9 min
  Locomotor Activity Intensity, Adj. Mean: −2.5 LMA counts per minute of EEG-defined wakefulness
3 mg/kg PO
  Rebound Insomnia, Adj. Mean: -1.3 min
  REM inhibition, Adj. Mean: -4.2 min
  Average Sleep Bout, Adj. Mean: 1.5 n-fold increase over vehicle controls
  Longest Sleep Bout, Adj. Mean: 1.9 n-fold increase over vehicle controls
  Cumulative Total sleep, Adj. Mean: 26.9 min
  Cumulative NREM sleep, Adj. Mean: 29.2 min
  Locomotor Activity Intensity, Adj. Mean: −2.6 LMA counts per minute of EEG-defined wakefulness
10 mg/kg PO
  Rebound Insomnia, Adj. Mean: 0.4 min
  REM inhibition, Adj. Mean: -12.1 min
  Average Sleep Bout, Adj. Mean: 1.7 n-fold increase over vehicle controls
  Longest Sleep Bout, Adj. Mean: 1.9 n-fold increase over vehicle controls
  Cumulative Total sleep, Adj. Mean: 32.8 min
  Cumulative NREM sleep, Adj. Mean: 36.7 min
  Locomotor Activity Intensity, Adj. Mean: −3.7 LMA counts per minute of EEG-defined wakefulness
rat
  change in awake time following treatment, dose response curve (FIG. 2): does not result in rebound insomnia
  change in cumulative REM sleep time, dose response curve (FIG. 1): does not inhibit REM sleep
  change in distances moved during periods of wakefulness, dose response curve (FIG. 3): does not inhibit or stimulate normal activity
